This note sets out measurements from BindingDB's records for patent US12384776 (Foghorn Therapeutics, 2025).

For this assay, the target named is T1, Bromodomain-containing protein 9 (Human, UniProt Q9H8M2).
T1 sequence (Q9H8M2 whole entry): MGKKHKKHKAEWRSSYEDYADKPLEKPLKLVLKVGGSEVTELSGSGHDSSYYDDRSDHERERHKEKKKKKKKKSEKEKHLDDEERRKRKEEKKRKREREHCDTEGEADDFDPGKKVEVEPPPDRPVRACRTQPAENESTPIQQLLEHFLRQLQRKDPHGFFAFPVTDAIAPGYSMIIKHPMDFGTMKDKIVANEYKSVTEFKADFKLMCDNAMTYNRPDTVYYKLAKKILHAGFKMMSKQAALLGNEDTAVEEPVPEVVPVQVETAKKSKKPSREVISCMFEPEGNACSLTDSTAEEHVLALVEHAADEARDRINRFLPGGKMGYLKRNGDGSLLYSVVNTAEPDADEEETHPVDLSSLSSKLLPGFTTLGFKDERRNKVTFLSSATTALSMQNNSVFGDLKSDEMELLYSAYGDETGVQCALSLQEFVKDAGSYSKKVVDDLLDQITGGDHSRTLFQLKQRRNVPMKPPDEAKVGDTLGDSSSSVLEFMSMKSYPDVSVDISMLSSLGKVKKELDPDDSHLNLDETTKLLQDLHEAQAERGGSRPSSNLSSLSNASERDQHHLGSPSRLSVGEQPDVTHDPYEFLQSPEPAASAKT
Kind of assay: SYO1 BRD9 NanoLuc Degradation Assay. The note with it: read-out: IC50 (the source's name). As to the method:
A stable SYO-1 cell line expressing 3×FLAG-NLuc-BRD9 was generated. On day 0 cells were seeded in 30 μL media into each well of 384-well cell culture plates. The seeding density was 8000 cells/well. On day 1, cells were treated with 30 nL DMSO or 30 nL of 3-fold serially DMSO-diluted compounds (10 points in duplicates with 1 μM as final top dose). Subsequently plates were incubated for 6 hours in a standard tissue culture incubator and equilibrated at room temperature for 15 minutes. Nanoluciferase activity was measured by adding 15 μL of freshly prepared Nano-Glo Luciferase Assay Reagent (Promega N1130), shaking the plates for 10 minutes and reading the bioluminescence using an EnVision reader.
Regarding `CNC(=O)N1CCc2c(-c3cc(OC)c(CN4CCC5(CC4)CN(c4ccc6c(c4)C(=O)N(C4CCC(=O)NC4=O)C6=O)C5)c(OC)c3)cn(C)c(=O)c2C1` (stereo unspecified) [US12384776, Compound D159], the DC50 was under 10 nM.
For `CNC(=O)N1CCc2c(-c3cc(OC)c(CN4CCC5(CC(C#Cc6ccc7c(c6)C(=O)N(C6CCC(=O)NC6=O)C7=O)C5)C4)c(OC)c3)cn(C)c(=O)c2C1` (stereo unspecified) [US12384776, Compound D135], the DC50 was under 10 nM.
Regarding `CNC(=O)N1CCc2c(-c3cc(OC)c(CN4CCC5(CC4)CCN(c4ccc6c(c4)C(=O)N(C4CCC(=O)NC4=O)C6=O)C5)c(OC)c3)cn(C)c(=O)c2C1` (stereo unspecified) [US12384776, Compound D163], the DC50 is under 10 nM.
For `CNC(=O)N1CCc2c(-c3cc(OC)c(CN4CCC5CN(c6ccc7c(c6)C(=O)N(C6CCC(=O)NC6=O)C7=O)C5C4)c(OC)c3)cn(C)c(=O)c2C1` (stereo unspecified) [US12384776, Compound D166], the DC50 is under 10 nM.
With `CNC(=O)N1CCc2c(-c3cc(OC)c(CN4CCN(CCC5CCN(c6ccc7c(c6)C(=O)N(C6CCC(=O)NC6=O)C7=O)CC5)CC4C(F)(F)F)c(OC)c3)cn(C)c(=O)c2C1` (stereo unspecified) [US12384776, Compound D97], the DC50 is under 10 nM.
Take `COc1cc(-c2cn(C)c(=O)c3c2CCN(C(=O)NCCOCCOCCNc2cccc4c2C(=O)N(C2CCC(=O)NC2=O)C4=O)C3)cc(OC)c1CN(C)C` (stereo unspecified) [US12384776, Compound D12]: the DC50 is over 10 nM.
On to `CNC(=O)N1CCc2c(-c3cc(OC)c(CN4CC5(CCN(c6ccc7c(c6)C(=O)N(C6CCC(=O)NC6=O)C7=O)CC5)C4)c(OC)c3)cn(C)c(=O)c2C1` (stereo unspecified) [US12384776, Compound D161], for which the DC50 is under 10 nM.
On to `CNC(=O)N1C=Cc2c(-c3cc(OC)c(CN4CCC(CN5CCC6(CC5)CN(c5ccc7c(c5)C(=O)N(C5CCC(=O)NC5=O)C7)C6)C(F)(F)C4)c(OC)c3)cn(C)c(=O)c2C1` (stereo unspecified) [US12384776, Compound D335], for which the DC50 is under 10 nM.
As to `CNC(=O)N1CCc2c(-c3cc(OC)c(CN4CCC5(C4)CN(c4ccc6c(c4)C(=O)N(C4CCC(=O)NC4=O)C6=O)C5)c(OC)c3)cn(C)c(=O)c2C1` (stereo unspecified) [US12384776, Compound D165], the DC50 was under 10 nM.
For the compound `CNC(=O)N1CCc2c(-c3cc(OC)c(CN4CCC5(CCN(c6ccc7c(c6)C(=O)N(C6CCC(=O)NC6=O)C7=O)C5)C4)c(OC)c3)cn(C)c(=O)c2C1` (stereo unspecified) [US12384776, Compound D162], the DC50 is under 10 nM.
For the compound `CNC(=O)N1CCc2c(-c3cc(OC)c(CN4CCC5C4CN5c4ccc5c(c4)C(=O)N(C4CCC(=O)NC4=O)C5=O)c(OC)c3)cn(C)c(=O)c2C1` (stereo unspecified) [US12384776, Compound D157], the DC50 is under 10 nM.
For the compound `CNC(=O)N1CCc2c(-c3cc(OC)c(CN4CCN(CCC5CCN(c6ccc7c(c6)C(=O)N(C6CCC(=O)NC6=O)C7=O)CC5)C(C)(C)C4)c(OC)c3)cn(C)c(=O)c2C1` (stereo unspecified) [US12384776, Compound D101], the DC50 was under 10 nM.
As for `CNC(=O)N1CCc2c(-c3cc(OC)c(CN4CCC5(CC4)CC(C#Cc4ccc6c(c4)C(=O)N(C4CCC(=O)NC4=O)C6=O)C5)c(OC)c3)cn(C)c(=O)c2C1` (stereo unspecified) [US12384776, Compound D134], the figure is under 10 nM; as for `CNC(=O)N1CCc2c(-c3cc(OC)c(CN4CCN(C5CN(c6ccc7c(c6)C(=O)N(C6CCC(=O)NC6=O)C7=O)C5)CC4)c(OC)c3)cn(C)c(=O)c2C1` (stereo unspecified) [US12384776, Compound D164], under 10 nM; as for `CNC(=O)N1CCc2c(-c3cc(OC)c(CN4CC5(CC(C#Cc6ccc7c(c6)C(=O)N(C6CCC(=O)NC6=O)C7=O)C5)C4)c(OC)c3)cn(C)c(=O)c2C1` (stereo unspecified) [US12384776, Compound D133], under 10 nM.
With `COc1cc(-c2cn(C)c(=O)c3c2CCN(C(=O)NC2CCC24CCN(CCOc2ccc5c(c2)C(=O)N(C2CCC(=O)NC2=O)C5=O)CC4)C3)cc(OC)c1CN(C)C` (stereo unspecified) [US12384776, Compound D239], the DC50 is over 10 nM.
